Experimental data reported in ChEMBL document CHEMBL4425100, “Design, Synthesis, and Evaluation of in Vitro and in Vivo Anticancer Activity of 4-Substituted Coumarins: A Novel Class of Potent Tubulin Polymerization Inhibitors” (J Med Chem, 2016).
Counter-ions that a name gives are not always drawn. The source made the active and inactive calls. No cut-off for these calls is given here.

How the values were obtained:
[1] = Solubility of the compound in […] ethanol/[…] Tween-80 at 1 mg; assay type: physicochemical
Tubulin (Homo sapiens) [2] = molecular target: T1, Tubulin (Homo sapiens) (UniProt P68371+Q9H4B7+P0DPH7+P68366+Q13509+Q71U36+P04350+Q3ZCM7+P07437+P68363+Q9BQE3+Q6PEY2+Q13885+Q9BVA1+Q9BUF5); assay: Binding affinity to tubulin in human HepG2 cells assessed as inhibition of microtubule network formation in cytosol at 100 nM after 16 to 24 hrs by DAPI staining-based immunofluorescence microscopy; assay type: cell-based
Tubulin (Homo sapiens) [3] = molecular target: T1, Tubulin (Homo sapiens); assay: Binding affinity to tubulin in human HepG2 cells assessed as induction of abnormal chromosomal aggregation at 100 nM after 16 to 24 hrs by DAPI staining-based immunofluorescence microscopy; assay type: cell-based
SK-OV-3 = assay: Antiproliferative activity against human SKOV3 cells after 24 hrs by MTT assay; assay type: functional, cell-based; conditions: SK-OV-3, 24 h
HCT-116 = assay: Antiproliferative activity against human HCT116 cells after 24 hrs by MTT assay; assay type: functional, cell-based; conditions: HCT-116, 24 h
HepG2 = assay: cells; conditions: Homo sapiens, HepG2, 24 h
Description: Antiproliferative activity against human HepG2 cells after 24 hrs by MTT assay

A2780/Taxol [4] = assay: Cytotoxicity against beta-tubulin 3 overexpressing human A2780T cells assessed as reduction in cell growth after 24 hrs by MTT assay; assay type: functional, cell-based
HCT-8 [5] = assay: Cytotoxicity against vinblastine resistant/P-gp overexpressing human HCT8 cells assessed as reduction in cell growth after 24 hrs by MTT assay; assay type: functional, cell-based; conditions: HCT-8, 24 h
NCI/ADR-RES [6] = assay: Cytotoxicity against P-gp overexpressing human MCF7/ADR cells assessed as reduction in cell growth after 24 hrs by MTT assay; assay type: functional, cell-based
Tubulin (Homo sapiens) [7] = molecular target: T1, Tubulin (Homo sapiens); assay: Binding affinity to microtubule in human HepG2 cells assessed as bundling of microtubule fibers near nucleus at 300 nM after 24 hrs by immunofluorescence staining-based confocal microscopy; assay type: cell-based
A2780/Taxol [8] = assay: Antitumor activity against beta-tubulin 3 overexpressing human A2780T cells xenografted in mouse assessed as tumor growth inhibition at 30 mg/kg, iv qd administered once a week; assay type: functional; conditions: read-out: TGI
MCF7 [9] = assay: Antitumor activity against human MCF7 cells xenografted in mouse assessed as tumor growth inhibition at 5 mg/kg, iv qd administered every 2 days measured during compound dosing; assay type: functional; conditions: 48 h, read-out: TGI
[10] = Toxicity in mouse xenografted with beta-tubulin 3 overexpressing human A2780T cells assessed as body weight loss at 30 mg/kg, iv qd administered once a week; assay type: organism-based; conditions: in vivo
[11] = Toxicity in mouse xenografted with beta-tubulin 3 overexpressing human A2780T cells assessed as abnormal behavior at 30 mg/kg, iv qd administered once a week; assay type: organism-based; conditions: in vivo
[12] = Toxicity in mouse xenografted with human MCF7 cells assessed as body weight loss at 5 mg/kg, iv qd administered every 2 days measured during compound dosing; assay type: organism-based; conditions: in vivo, 48 h
[13] = Toxicity in mouse xenografted with human MCF7 cells assessed as body weight loss at 24 mg/kg, iv qd administered once a week; assay type: organism-based; conditions: in vivo
Tubulin (Homo sapiens) [14] = molecular target: T1, Tubulin (Homo sapiens); assay: Inhibition of microtubule polymerization in human HepG2 cells after 24 hrs by immunofluorescence staining-based confocal microscopy; assay type: cell-based
Tubulin (Homo sapiens) [15] = molecular target: T1, Tubulin (Homo sapiens); assay: Binding affinity to microtubule in human HepG2 cells assessed as inhibition of spindle formation after 24 hrs by immunofluorescence staining-based confocal microscopy; assay type: cell-based
Tubulin (Sus scrofa) [16] = molecular target: T2, Tubulin (Sus scrofa) (UniProt P02554+P02550); assay: Inhibition of porcine brain tubulin polymerization preincubated for 5 mins followed by GTP addition measured every 2 mins by spectrophotometry
[17] = molecular target: Tubulin beta (Homo sapiens) (UniProt P68371+Q9H4B7+Q13509+P04350+Q3ZCM7+P07437+Q13885+Q9BVA1+Q9BUF5+A6NNZ2); assay: Competitive binding affinity to beta-tubulin in human HepG2 cells assessed as disappearance of EBI-protein adducts preincubated for 2 hrs followed by EBI addition measured after […] by Western blot analysis; assay type: cell-based
[18] = Toxicity in mouse xenografted with human H460 cells assessed as body weight loss at 2.5 to 5 mg/kg, iv qd administered every 2 days measured daily during compound dosing; assay type: organism-based; conditions: in vivo, 48 h
[19] = Toxicity in mouse xenografted with human H460 cells assessed as mortality at 2.5 to 5 mg/kg, iv qd administered every 2 days measured daily during compound dosing; assay type: organism-based; conditions: in vivo, 48 h
Tubulin (Sus scrofa) [20] = molecular target: T2, Tubulin (Sus scrofa); assay: Inhibition of porcine brain tubulin polymerization at 10 uM preincubated for 5 mins followed by GTP addition measured every 2 mins by spectrophotometry
[21] = Toxicity in mouse allografted with mouse C26 cells assessed as body weight loss at 2.5 to 5 mg/kg, iv qd administered every 2 days measured daily during compound dosing; assay type: organism-based; conditions: in vivo, 48 h
[22] = Toxicity in mouse allografted with mouse C26 cells assessed as mortality at 2.5 to 5 mg/kg, iv qd administered every 2 days measured daily during compound dosing; assay type: organism-based; conditions: in vivo, 48 h
NCI/ADR-RES [23] = assay: Antitumor activity against P-gp overexpressing human MCF7/ADR cells xenografted in mouse assessed as tumor growth inhibition at 4 mg/kg, iv qd administered every 2 days measured during compound dosing; assay type: functional; conditions: 48 h, read-out: TGI
[24] = Toxicity in mouse xenografted with P-gp overexpressing human MCF7/ADR cells assessed as body weight loss at 4 mg/kg, iv qd administered every 2 days measured during compound dosing; assay type: organism-based; conditions: in vivo, 48 h
HCT-8 [25] = assay: Antiproliferative activity against human HCT8 cells after 24 hrs by MTT assay; assay type: functional, cell-based; conditions: HCT-8, 24 h
MCF7 [26] = assay: cells; conditions: Homo sapiens, MCF7, 24 h
Description: Antiproliferative activity against human MCF7 cells after 24 hrs by MTT assay

T2 sequence (P02550 whole entry, looked up): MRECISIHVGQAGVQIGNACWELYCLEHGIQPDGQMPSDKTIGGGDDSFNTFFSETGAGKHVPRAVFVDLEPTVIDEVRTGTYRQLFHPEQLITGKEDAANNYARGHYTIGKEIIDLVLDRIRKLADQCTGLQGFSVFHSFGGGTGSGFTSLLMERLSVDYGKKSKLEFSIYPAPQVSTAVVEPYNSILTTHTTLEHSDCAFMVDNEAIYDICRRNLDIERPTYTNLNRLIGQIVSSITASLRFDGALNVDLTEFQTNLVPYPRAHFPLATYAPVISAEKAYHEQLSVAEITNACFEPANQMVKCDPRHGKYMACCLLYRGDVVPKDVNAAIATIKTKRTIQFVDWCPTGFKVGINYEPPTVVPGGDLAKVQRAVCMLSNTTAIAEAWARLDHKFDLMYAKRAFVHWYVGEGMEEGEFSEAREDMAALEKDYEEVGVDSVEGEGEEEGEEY
T2 sequence (P02554 whole entry, looked up): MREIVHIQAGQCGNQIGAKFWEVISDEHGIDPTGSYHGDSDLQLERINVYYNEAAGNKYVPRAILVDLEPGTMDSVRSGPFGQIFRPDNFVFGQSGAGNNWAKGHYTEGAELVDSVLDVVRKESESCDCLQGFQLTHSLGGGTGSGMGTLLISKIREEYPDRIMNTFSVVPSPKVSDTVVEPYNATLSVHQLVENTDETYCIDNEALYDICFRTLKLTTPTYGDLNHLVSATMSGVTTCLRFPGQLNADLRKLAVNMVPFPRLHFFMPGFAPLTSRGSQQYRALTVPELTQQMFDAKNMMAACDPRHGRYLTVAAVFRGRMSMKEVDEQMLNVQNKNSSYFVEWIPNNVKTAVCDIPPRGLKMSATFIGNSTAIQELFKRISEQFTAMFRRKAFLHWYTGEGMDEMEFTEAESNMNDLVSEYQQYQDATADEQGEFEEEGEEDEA

## C=CCCC(=O)Nc1cc(N(C)c2cc(=O)oc3ccccc23)ccc1OC
[1]
  solubility: Soluble
Tubulin (Homo sapiens) [2]
  inhibition of microtubule network formation (active/inactive): Active
Tubulin (Homo sapiens) [3]
  Activity: Active

## CCCCCC(=O)Nc1cc(N(C)c2cc(=O)oc3ccccc23)ccc1OC
[1]
  solubility: Insoluble

## CC/C=C(\C)C(=O)Nc1cc(N(C)c2cc(=O)oc3ccccc23)ccc1OC
[1]
  solubility: Insoluble

## COc1ccc(N(C)c2cc(=O)oc3ccccc23)cc1OCCN1CCOCC1
SK-OV-3
  IC50: > 5 µM
HCT-116
  IC50: > 5 µM
HepG2
  IC50: > 5 µM

## CCOC(=O)CCC(=O)Nc1cc(N(C)c2cc(=O)oc3ccccc23)ccc1OC
[1]
  solubility: Insoluble

## COc1ccc(N(C)c2cc(=O)oc3ccccc23)cc1OC(=O)CCCCCl
[1]
  solubility: Soluble
Tubulin (Homo sapiens) [2]
  inhibition of microtubule network formation (active/inactive): Active
Tubulin (Homo sapiens) [3]
  Activity: Active

## C=C(C)C(=O)Oc1cc(N(C)c2cc(=O)oc3ccccc23)ccc1OC
[1]
  solubility: Insoluble

## CCC/C=C/C(=O)Oc1cc(N(C)c2cc(=O)oc3ccccc23)ccc1OC
[1]
  solubility: Insoluble

## CCOC(=O)CCC(=O)Oc1cc(N(C)c2cc(=O)oc3ccccc23)ccc1OC
[1]
  solubility: Insoluble

## CCCCC(=O)Oc1cc(N(C)c2cc(=O)oc3ccccc23)ccc1OC
[1]
  solubility: Insoluble

## C=CC(=O)Oc1cc(N(C)c2cc(=O)oc3ccccc23)ccc1OC
[1]
  solubility: Insoluble

## CC(=O)O[C@H]1C(=O)[C@@]2(C)[C@H]([C@H](OC(=O)c3ccccc3)[C@]3(O)C[C@H](OC(=O)[C@H](O)[C@@H](NC(=O)c4ccccc4)c4ccccc4)C(C)=C1C3(C)C)[C@]1(OC(C)=O)CO[C@@H]1C[C@@H]2O [PACLITAXEL]
A2780/Taxol [4]
  IC50: 56.6 µM
HCT-8 [5]
  IC50: 0.189 µM
NCI/ADR-RES [6]
  IC50: 9.15 µM
Tubulin (Homo sapiens) [7]
  Activity: Active
A2780/Taxol [8]
  inhibition in vivo at 30 mg/kg: 37.7%
MCF7 [9]
  inhibition in vivo at 5 mg/kg: 59.2%
[10]
  Activity: Toxic
[11]
  Activity: Toxic
[12]
  Activity: Toxic
[13]
  Activity: Toxic

## COc1ccc(N(C)c2cc(=O)oc3ccccc23)cc1OC(=O)C(C)(C)C
[1]
  solubility: Insoluble

## COc1ccc(N(C)c2cc(=O)oc3ccccc23)cc1OC(=O)C1CC1
[1]
  solubility: Insoluble

## COc1ccc(N(C)c2cc(=O)oc3ccccc23)cc1OC(=O)CC(C)(C)C
[1]
  solubility: Insoluble

## CCCCCCCCCC(=O)Nc1cc(N(C)c2cc(=O)oc3ccccc23)ccc1OC
[1]
  solubility: Insoluble

## COc1ccc(N(C)c2cc(=O)oc3ccccc23)cc1OC(=O)C=C(C)C
[1]
  solubility: Insoluble

## COc1ccc(N(C)c2cc(=O)oc3ccccc23)cc1OC(=O)CCl
[1]
  solubility: Insoluble

## COc1ccc2c(-c3ccc(-c4ccc5c(c4)OCO5)s3)cc(=O)oc2c1
SK-OV-3
  IC50: > 5 µM
HCT-116
  IC50: > 5 µM
HepG2
  IC50: > 5 µM

## COc1ccc(-c2ccc(-c3cc(=O)oc4cc(OC)ccc34)s2)cc1
SK-OV-3
  IC50: > 5 µM
HCT-116
  IC50: > 5 µM
HepG2
  IC50: > 5 µM

## COc1cc2c(c(OC)c1OC)-c1ccc(OC)c(=O)cc1[C@@H](NC(C)=O)CC2 [COLCHICINE]
SK-OV-3
  IC50: 0.0519 µM
A2780/Taxol [4]
  IC50: 8.67 µM
HCT-8 [5]
  IC50: 2.43 µM
HepG2
  IC50: 0.0428 µM

## CCCCCCCCCC(=O)Oc1cc(N(C)c2cc(=O)oc3ccccc23)ccc1OC
[1]
  solubility: Insoluble

## COC(=O)CCCC(=O)Oc1cc(N(C)c2cc(=O)oc3ccccc23)ccc1OC
[1]
  solubility: Soluble
Tubulin (Homo sapiens) [2]
  inhibition of microtubule network formation (active/inactive): Active
Tubulin (Homo sapiens) [3]
  Activity: Active

## CC/C=C(\C)C(=O)Oc1cc(N(C)c2cc(=O)oc3ccccc23)ccc1OC
[1]
  solubility: Soluble
Tubulin (Homo sapiens) [2]
  inhibition of microtubule network formation (active/inactive): Active
Tubulin (Homo sapiens) [3]
  Activity: Active

## CCCCCC(=O)Oc1cc(N(C)c2cc(=O)oc3ccccc23)ccc1OC
[1]
  solubility: Insoluble

## COc1ccc(N(C)c2cc(=O)oc3ccccc23)cc1OC(C)=O
[1]
  solubility: Insoluble

## COc1ccc(N(C)c2cc(=O)oc3ccccc23)cc1N
[1]
  solubility: Insoluble

## COc1ccc(N(C)c2cc(=O)oc3ccccc23)cc1O
[1]
  solubility: Insoluble

## COc1ccc(N(C)c2cc(=O)oc3ccccc23)cc1OC(=O)CBr
[1]
  solubility: Insoluble

## C/C=C/C(=O)Nc1cc(N(C)c2cc(=O)oc3ccccc23)ccc1OC
[1]
  solubility: Insoluble

## CCC(=O)Oc1cc(N(C)c2cc(=O)oc3ccccc23)ccc1OC
[1]
  solubility: Insoluble

## COC(=O)CCCC(=O)Nc1cc(N(C)c2cc(=O)oc3ccccc23)ccc1OC
[1]
  solubility: Soluble
Tubulin (Homo sapiens) [2]
  inhibition of microtubule network formation (active/inactive): Active
Tubulin (Homo sapiens) [3]
  Activity: Active

## COc1ccc(N(C)c2cc(=O)oc3ccccc23)cc1NC(=O)CCCCCl
[1]
  solubility: Soluble
Tubulin (Homo sapiens) [2]
  inhibition of microtubule network formation (active/inactive): Active
Tubulin (Homo sapiens) [3]
  Activity: Active
Tubulin (Homo sapiens) [14]
  inhibition: Dose-dependent effect
Tubulin (Homo sapiens) [15]
  inhibition: Dose-dependent effect
Tubulin (Sus scrofa) [16]
  inhibition: Dose-dependent effect
[17]
  Activity: Dose-dependent effect

## C=CCCC(=O)Oc1cc(N(C)c2cc(=O)oc3ccccc23)ccc1OC
[1]
  solubility: Insoluble

## COc1ccc(N(C)c2nc(C)nc3ccccc23)cc1 [VERUBULIN]
SK-OV-3
  IC50: 0.0032 µM
HCT-116
  IC50: 0.0043 µM
[18]
  Activity: Toxic
[19]
  Activity: Toxic
Tubulin (Sus scrofa) [20]
  inhibition: Active
[21]
  Activity: Toxic
[22]
  Activity: Toxic
HepG2
  IC50: 0.0046 µM

## C/C=C/C(=O)Oc1cc(N(C)c2cc(=O)oc3ccccc23)ccc1OC
[1]
  solubility: Soluble
Tubulin (Homo sapiens) [2]
  inhibition of microtubule network formation (active/inactive): Active
Tubulin (Homo sapiens) [3]
  Activity: Active

## COc1cccc2c1C(=O)c1c(O)c3c(c(O)c1C2=O)C[C@@](O)(C(=O)CO)C[C@@H]3O[C@H]1C[C@H](N)[C@H](O)[C@H](C)O1 [DOXORUBICIN HYDROCHLORIDE]
NCI/ADR-RES [6]
  IC50: 8.15 µM
NCI/ADR-RES [23]
  inhibition in vivo at 4 mg/kg: 33.3%
[24]
  Activity: Toxic

## COc1ccc2c(N(C)c3ccc(OC)c(O)c3)cc(=O)oc2c1
[1]
  solubility: Insoluble

## CC[C@]1(O)C[C@@H]2CN(CCc3c([nH]c4ccccc34)[C@@](C(=O)OC)(c3cc4c(cc3OC)N(C)[C@H]3[C@@](O)(C(=O)OC)[C@H](OC(C)=O)[C@]5(CC)C=CCN6CC[C@]43[C@@H]65)C2)C1 [VINBLASTINE]
HCT-8 [25]
  IC50: 0.0148 µM
A2780/Taxol [4]
  IC50: 6.9 µM
HCT-8 [5]
  IC50: 5.21 µM
NCI/ADR-RES [6]
  IC50: 5.85 µM
MCF7 [26]
  IC50: 0.0547 µM
